The subject of this experiment is wild type, pfpmtΔ+PfPMT and pfpmtΔ parasites. Briefly: TUNEL assay of drug-treated parasites. The experiment is classed as cell-based, Plasmodium falciparum. Conditions: 100 nM, 24 h. The method, then:
The terminal deoxynucleotidyl transferase (TdT) dUTP nick end labeling (TUNEL) kit (Roche) was used to detect apoptotic cells following the manufacturer's instructions, with some modifications. Briefly, asynchronous cultures were grown to 10% parasitemia and 1 ml of the culture aliquots were washed twice with PBS and the cell count adjusted to 1×10^6 cells/ml. Fixation was achieved by resuspending the cells in 2% paraformaldehyde solution in PBS and incubated at room temperature for 1 h. The fixed cells were washed twice with PBS, resuspended in 100 μl of 0.1% Triton X-100 in 0.1% sodium citrate solution, and incubated for 2 min on ice. Cells were then washed twice in PBS and kept on ice until labeling. A positive control sample was prepared by incubating fixed and permeabilized cells with 3000 U/ml of DNase I for 15 min at room temperature followed by two washes with PBS. To label the cells, 50 μl of the TUNEL reaction mixture was added to the cell pellet and mixed gently. A negative control sample was included by treating fixed, permeabilized cells with the labeling solution in, the absence of the terminal TdT enzyme. The reaction mixtures were incubated in the dark at 37° C. for 1 h and then washed twice in PBS and resuspended in 250 μl PBS. Cells were analyzed by fluorescence microscopy at 525 nm wavelength with the FITC filter. […]

With `CCN(CC)CCCC(C)Nc1ccnc2cc(Cl)ccc12` (stereo not shown) [chloroquine], the “TUNEL staining of drug-treated parasites” value is given as “positively stained with TUNEL”.

Values taken from patent US8153116B2, “Use of conditional plasmodium strains lacking an essential gene in malaria vaccination” (University of Connecticut, priority 2006, dated 2012).
